Columns and labels:
[1] = tested on: ClpC1–Sa ClpP; type: biochemical, Mycobacterium tuberculosis ClpC1; Staphylococcus aureus ClpP
[2] = tested on: ClpC1-WT–ClpP1P2; type: biochemical, Mycobacterium tuberculosis; details: pH 7.5
[3] = tested on: Mtb cells; details: ref [19], cited from earlier work
[4] = tested on: NMtb–ClpC; details: ref [26]; cited from earlier work
[5] = tested on: ClpC1-E288A with Sa ClpP; type: biochemical, Mycobacterium tuberculosis ClpC1; Staphylococcus aureus ClpP
[6] = tested on: ClpC1-E626A with Sa ClpP; type: biochemical, Mycobacterium tuberculosis ClpC1; Staphylococcus aureus ClpP
[7] = tested on: ClpC1-WT–P1P2; type: biochemical, Mycobacterium tuberculosis
[8] = tested on: ClpC1-F444S; type: biochemical, Mycobacterium tuberculosis
[9] = tested on: ClpC1-F444S; type: biochemical, Mycobacterium tuberculosis; remark: listed apart in the source
[10] = tested on: ClpC1-F444S and ClpP1P2; type: biochemical, Mycobacterium tuberculosis
[11] = tested on: ClpC1-E288A; type: biochemical, Mycobacterium tuberculosis
[12] = tested on: ClpC1-F444S–ClpP1P2; type: biochemical, Mycobacterium tuberculosis
[13] = tested on: ClpC1-F444S–ClpP1P2; type: biochemical, Mycobacterium tuberculosis; remark: listed apart in the source
[14] = tested on: ClpC1-WT–ClpP1P2; type: biochemical, Mycobacterium tuberculosis
[15] = tested on: ClpC1-E626A; type: biochemical, Mycobacterium tuberculosis
[16] = tested on: ClpC1-WT and ClpP1P2; type: biochemical, Mycobacterium tuberculosis
[17] = tested on: ClpC1-F444S–ClpP1P2; type: biochemical, Mycobacterium tuberculosis; remark: listed apart in the source
[18] = tested on: Sa ClpC; details: ref [26]; cited from earlier work
[19] = target: FITC-casein; assay: fluorescence polarisation

For CyclomarinA [CymA], the “effect on FITC-casein degradation by ClpC1–Sa ClpP” value [1] is given as “comparable to those determined for ClpC1–ClpP1P2 complexes”, the “enhancement of GFP-SsrA degradation” value [2] is given as 1.8 fold and the “toxicity to Mtb cells” value ([3]; [20], [21], [22]) is given as “highly toxic to Mtb cells”. The “cellular toxicity in Mtb cells” value [3] was “severe cellular toxicity”, the “effect on ATPase and proteolytic activities of NMtb–ClpC” value [4] was “increases both ATPase and proteolytic activities” and the “effect on FITC-casein degradation” value [5] was “did not enhance FITC-casein degradation”. For the same substance, the “effect on FITC-casein degradation” value [6] was “did not enhance FITC-casein degradation”, the “effect on VapB15 degradation” value [7] was “minor inhibition” and the “change of crosslink pattern / hexamer level” value [8] was “remained the same”. The “change of mass profile” value [9] was “No major changes in mass profiles”, the “reduction of ClpS-dependent FR-L-GFP degradation activity of ClpC1-F444S by CymA” value [10] was 2.3 fold and the “effect on ATP hydrolysis of ClpC1-E288A” value [11] was “stimulated ATP hydrolysis of ClpC1-E288A”. For the same substance, the “effect of CymA on GFP-SsrA degradation by ClpC1-F444S–ClpP1P2” value [12] was “slightly reduced”, the “effect of CymA on FITC-casein degradation by ClpC1-F444S–ClpP1P2” value [13] was “further enhanced” and the “inhibition of ClpC1-WT–ClpP1P2 activity” value [14] was “did not observe strong inhibition”. For the same substance, the “increase of basal FITC-casein degradation activity” value ([14]; pH 7.5) was “fourfold”, the “effect on ATP hydrolysis of ClpC1-E626A” value [15] was “but not ClpC1-E626A” and the “enhancement of FR-L-GFP degradation rate by CymA” value [16] was 1.6 fold. The “effect on VapB15 degradation” value [17] was “inhibitory effect” and the “sensitivity of Sa ClpC WT with native NTD to CymA” value [18] was “insensitive”.

Work on “ATPase-deficient double Walker B variant ClpC1-E288A-E626A (from UniProt P9WPC9 1-848) (enzyme)” yielded a Kd [19] of 1000 nM.
